Assay results as given in publication PMC12747935 (2025).

Key:
Assay in all cases: ribozyme self-cleavage, PAGE with SYBR Gold
[1] = test system: THEO allosteric ribozyme (RNA, aptamer) GGGCGUAGCCUGAUGAGCCCUAAUACCAGCCGAAAGGCCCUUGGCAGUAGAGCGAAACGUGGAAACACGUCGCUGCGAGCUGUGG; settings: 100 mM KCl, 20 mM MgCl2, 30 mM HEPES pH 7.5, 25°C, 30 min; for binding: 100 μM compound
[2] = test system: ThiC-TPP allosteric ribozyme (bridge of four base pairs) (RNA, riboswitch) GGGCGUAGCCUGAUGAGACUCGGGGUGCCCUUCUGCGUGAAGGCUGAGAAAUACCCGUAUCACCUGAUCUGGAUAAUGCCAGCGUAGGGAAGUCGAAACGUGGUGAAAGCCACGUCGCUGCGCCGCAGCUGUGGAA; settings: 100 mM KCl, 20 mM MgCl2, 30 mM HEPES pH 7.5, 25°C, 30 min
[3] = test system: Motif_9307 allosteric ribozyme (RNA, riboswitch) GGGCGUAGCCUGAUGAGACUUAUAAUUUUUGAUAUAGAAAUAAAUUACAGUAGUUACACGCAAUAACCGUUGGUCCAAAUAGUAUCCUGUCCUGAGCCGACCGAGUCGAAACGUGGUGAAAGCCACGUCGCUGCGCCGCAGCUGUGGAA; settings: 100 mM KCl, 20 mM MgCl2; 30 mM HEPES pH 7.5, 25°C, 30 min; no change in cleavage
[4] = test system: ThiC-TPP allosteric ribozyme (bridge of three base pairs) (RNA, riboswitch) GGGCGUAGCCUGAUGAGCUCGGGGUGCCCUUCUGCGUGAAGGCUGAGAAAUACCCGUAUCACCUGAUCUGGAUAAUGCCAGCGUAGGGAAGCGAAACGUGGUGAAAGCCACGUCGCUGCGCCGCAGCUGUGGAA; settings: 100 mM KCl, 20 mM MgCl2; 30 mM HEPES pH 7.5, 25°C, 30 min; apparent; text gives only 1 to 3 μM for both bridges
[5] = test system: NCU-TPP allosteric ribozyme (bridge of three base pairs) (RNA, riboswitch) GGGCGUAGCCUGAUGAGACUACGGGCGCUGUCGAAAGACAGCUGAGAUUGUACCGUGAUUACUCGAUCAAGUUAAUGCUUGCGUGAGAAACGUCGAAACGUGGUGAAAGCCACGUCGCUGCGCCGCAGCUGUGGAA; settings: 100 mM KCl, 20 mM MgCl2, 30 mM HEPES pH 7.5, 25°C, 30 min, half-maximal cleavage change

`Cn1c(=O)[nH]c(=O)c2[nH]cnc21` was tested, and the binding ([1]; cleavage fraction 0.421 against 0.163 without ligand) was “yes”.
In the case of `Cn1c(=O)c2[nH]cnc2n(C)c1=O`, the “apparent K D” value ([1]; apparent, half-maximal cleavage induction) is reported as 3.1 ± 0.2 µM.
`N[C@@H](Cc1cnc[nH]1)C(=O)O` was tested, and the binding ([2]; cleavage fraction 0.393 against 0.403 without ligand) was “no”.
With `Cn1c(=O)[nH]c2nc[nH]c2c1=O` the binding ([1]; cleavage fraction 0.300 against 0.163 without ligand) was “weak”.
In the case of `NC(=O)CC[C@H](N)C(=O)O`, the binding [3] is reported as “no”.
`Nc1ncnc2c1ncn2[C@@H]1O[C@H](CSCC[C@H](N)C(=O)O)[C@@H](O)[C@H]1O` was tested, and the binding [3] was “no”.
With `Cc1ncc(C[n+]2csc(CCO)c2C)c(N)n1` the binding ([2]; cleavage fraction 0.235 against 0.403 without ligand) was “yes”.
In the case of `Cc1ncc(C[n+]2csc(CCOP(=O)(O)OP(=O)(O)O)c2C)c(N)n1`, the “apparent K D” value ([2]; apparent, half-maximal cleavage inhibition) is reported as 1.2 ± 0.2 µM, the “K D” value [4] is reported as 3.0 ± 1.1 µM and the “apparent K D” value [5] is reported as 2.4 ± 1.4 µM.
With `C[S+](CC[C@H](N)C(=O)O)C[C@H]1O[C@@H](n2cnc3c(N)ncnc32)[C@H](O)[C@@H]1O` (stereo partly shown) the binding [3] was “no”.
With `N[C@@H](CCS)C(=O)O` the binding [3] was “no”.
`CSCC[C@H](N)C(=O)O` was tested, and the binding [3] was “no”.
